# According to US9758485B2, “Compounds for controlling arthropods” (priority 2013, dated 2017):
# Test system: Musca domestica
# Experiment: Musca domestica test
# Assay type: in vivo
# Conditions: application rate 100 ppm; adult houseflies; kill after 2 days
# In short: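 Feeding exposure: adult Musca domestica, 10 per vessel, given a sponge with sugar solution and test formulation at the desired concentration; % mortality determined on day 2.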
row,Structure (SMILES),efficacy [%]
1,O=C(NC1CC1)c1cc(-c2cnn(-c3c(Br)cc(C(F)(C(F)(F)F)C(F)(F)F)cc3C(F)(F)F)c2)ccc1Cl [I-T3-148],100
2,N#CC1(NC(=O)c2cc(-c3cnn(-c4c(Br)cc(C(F)(C(F)(F)F)C(F)(F)F)cc4C(F)(F)F)c3)ccc2Cl)CC1 [I-T3-155],100
3,O=C(NC1CC1)c1cc(-c2cnn(-c3c(Cl)cc(C(F)(C(F)(F)F)C(F)(F)F)cc3OC(F)(F)F)c2)ccc1Cl [I-T3-162],100
4,N#CC1(NC(=O)c2cc(-c3cnn(-c4c(Cl)cc(C(F)(C(F)(F)F)C(F)(F)F)cc4OC(F)(F)F)c3)ccc2Cl)CC1 [I-T3-163],100
5,Cc1cc(C(F)(C(F)(F)F)C(F)(F)F)cc(C)c1-c1cc(-c2ccc(Cl)c(C(=O)NC3(C#N)CC3)c2)on1 [I-T22-2],100

# Test system: Lucilia cuprina
# Experiment: Lucilia cuprina test
# Assay type: in vivo
# Conditions: application rate 100 ppm; L1 larvae in minced horsemeat; kill after 2 days
# In short: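 About 20 L1 larvae placed on minced horsemeat treated with compound, formulated in DMSO and diluted with water to test concentration. Kill in % scored after 2 days (100% = all larvae dead, 0% = none).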
row,Structure (SMILES),efficacy [%]
1,O=C(NC1CC1)c1cc(-c2cnn(-c3c(Br)cc(C(F)(C(F)(F)F)C(F)(F)F)cc3C(F)(F)F)c2)ccc1Cl [I-T3-148],100
2,N#CC1(NC(=O)c2cc(-c3cnn(-c4c(Br)cc(C(F)(C(F)(F)F)C(F)(F)F)cc4C(F)(F)F)c3)ccc2Cl)CC1 [I-T3-155],100
3,O=C(NC1CC1)c1cc(-c2cnn(-c3c(Cl)cc(C(F)(C(F)(F)F)C(F)(F)F)cc3OC(F)(F)F)c2)ccc1Cl [I-T3-162],100
4,N#CC1(NC(=O)c2cc(-c3cnn(-c4c(Cl)cc(C(F)(C(F)(F)F)C(F)(F)F)cc4OC(F)(F)F)c3)ccc2Cl)CC1 [I-T3-163],100
5,Cc1cc(C(F)(C(F)(F)F)C(F)(F)F)cc(C)c1-c1cc(-c2ccc(Cl)c(C(=O)NC3(C#N)CC3)c2)on1 [I-T22-2],100

# Test system: Boophilus microplus Parkhurst strain, SP-resistant
# Experiment: Boophilus microplus - dip test
# Assay type: in vivo
# Conditions: application rate 100 ppm; dip of engorged adult female ticks; laying of fertile eggs, after 7 days
# In short: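 Adult engorged females of SP-resistant Parkhurst strain (8–10 per tube) fully immersed in compound diluted in water from a DMSO solution. Ticks then kept on filter discs in a climate-controlled room; efficacy scored from fertile egg laying at 7 days, with unclear eggs held about 42 days until hatch (100% = no fertile eggs).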
row,Structure (SMILES),efficacy [%]
1,O=C(NC1CC1)c1cc(-c2cnn(-c3c(Br)cc(C(F)(C(F)(F)F)C(F)(F)F)cc3C(F)(F)F)c2)ccc1Cl [I-T3-148],100
2,N#CC1(NC(=O)c2cc(-c3cnn(-c4c(Br)cc(C(F)(C(F)(F)F)C(F)(F)F)cc4C(F)(F)F)c3)ccc2Cl)CC1 [I-T3-155],100
3,O=C(NC1CC1)c1cc(-c2cnn(-c3c(Cl)cc(C(F)(C(F)(F)F)C(F)(F)F)cc3OC(F)(F)F)c2)ccc1Cl [I-T3-162],100
4,N#CC1(NC(=O)c2cc(-c3cnn(-c4c(Cl)cc(C(F)(C(F)(F)F)C(F)(F)F)cc4OC(F)(F)F)c3)ccc2Cl)CC1 [I-T3-163],100
5,Cc1cc(C(F)(C(F)(F)F)C(F)(F)F)cc(C)c1-c1cc(-c2ccc(Cl)c(C(=O)NC3(C#N)CC3)c2)on1 [I-T22-2],100

# Test system: Ctenocephalides felis
# Experiment: Ctenocephalides felis - in vitro contact tests with adult cat fleas
# Assay type: in vivo
# Conditions: application rate 5 μg/cm^2 (=500 g/ha), after 48 h (dead or moribund)
# In short: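 Acetone solution coated on test-tube inner walls (900 ppm gives 5 μg/cm^2). After drying, 5-10 adult cat fleas added and kept horizontal at room temperature and ambient humidity. At 48 h fleas knocked down; motionless or uncoordinated ones counted dead/moribund, giving % efficacy.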
row,Structure (SMILES),efficacy [%]
1,O=C(NC1CC1)c1cc(-c2cnn(-c3c(Br)cc(C(F)(C(F)(F)F)C(F)(F)F)cc3C(F)(F)F)c2)ccc1Cl [I-T3-148],100
2,N#CC1(NC(=O)c2cc(-c3cnn(-c4c(Br)cc(C(F)(C(F)(F)F)C(F)(F)F)cc4C(F)(F)F)c3)ccc2Cl)CC1 [I-T3-155],100
3,O=C(NC1CC1)c1cc(-c2cnn(-c3c(Cl)cc(C(F)(C(F)(F)F)C(F)(F)F)cc3OC(F)(F)F)c2)ccc1Cl [I-T3-162],100
4,N#CC1(NC(=O)c2cc(-c3cnn(-c4c(Cl)cc(C(F)(C(F)(F)F)C(F)(F)F)cc4OC(F)(F)F)c3)ccc2Cl)CC1 [I-T3-163],100
5,Cc1cc(C(F)(C(F)(F)F)C(F)(F)F)cc(C)c1-c1cc(-c2ccc(Cl)c(C(=O)NC3(C#N)CC3)c2)on1 [I-T22-2],100

# Test system: not listed separately
# Experiment: logP determination by HPLC on a reversed-phase column (C18), EEC Directive 79/831 Annex V.A8
# Assay type: physicochemical
# Conditions: HPLC, reversed-phase C18, acetonitrile/water with formic acid, 55° C.
row,Structure (SMILES),logP
1,Cc1cc(C(F)(C(F)(F)F)C(F)(F)F)cc(C)c1-c1cc(-c2ccc(Cl)c(C(=O)NC3(C#N)CC3)c2)on1 [I-T22-2],4.6

# Same assay, conditions: HPLC-MS, reversed-phase column (C18)
row,Structure (SMILES),log P
1,O=C(NC1CC1)c1cc(-c2cnn(-c3c(Br)cc(C(F)(C(F)(F)F)C(F)(F)F)cc3C(F)(F)F)c2)ccc1Cl [I-T3-148],4.5
2,N#CC1(NC(=O)c2cc(-c3cnn(-c4c(Br)cc(C(F)(C(F)(F)F)C(F)(F)F)cc4C(F)(F)F)c3)ccc2Cl)CC1 [I-T3-155],4.4
3,O=C(NC1CC1)c1cc(-c2cnn(-c3c(Cl)cc(C(F)(C(F)(F)F)C(F)(F)F)cc3OC(F)(F)F)c2)ccc1Cl [I-T3-162],4.6
4,N#CC1(NC(=O)c2cc(-c3cnn(-c4c(Cl)cc(C(F)(C(F)(F)F)C(F)(F)F)cc4OC(F)(F)F)c3)ccc2Cl)CC1 [I-T3-163],4.5

# Test system: Rhipicephalus sanguineus
# Experiment: Rhipicephalus sanguineus - in vitro contact tests with adult brown dog ticks
# Assay type: in vivo
# Conditions: application rate 5 μg/cm^2, after 48 h (dead or moribund)
# In short: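 Test compound was dissolved in acetone p.a. (9 mg in 1 ml, then diluted), and 250 μl were spread evenly over the inner surface of 25 ml test tubes on an orbital shaker at 30 rpm for 2 h. Once the solvent evaporated, 5-10 adult Rhipicephalus sanguineus ticks were sealed in, kept dark at room temperature, and after 48 h placed on a 45-50° C. hotplate to score dead or moribund ticks.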
row,Structure (SMILES),efficacy [%]
1,O=C(NC1CC1)c1cc(-c2cnn(-c3c(Br)cc(C(F)(C(F)(F)F)C(F)(F)F)cc3C(F)(F)F)c2)ccc1Cl [I-T3-148],100
2,N#CC1(NC(=O)c2cc(-c3cnn(-c4c(Br)cc(C(F)(C(F)(F)F)C(F)(F)F)cc4C(F)(F)F)c3)ccc2Cl)CC1 [I-T3-155],100
3,O=C(NC1CC1)c1cc(-c2cnn(-c3c(Cl)cc(C(F)(C(F)(F)F)C(F)(F)F)cc3OC(F)(F)F)c2)ccc1Cl [I-T3-162],100
4,N#CC1(NC(=O)c2cc(-c3cnn(-c4c(Cl)cc(C(F)(C(F)(F)F)C(F)(F)F)cc4OC(F)(F)F)c3)ccc2Cl)CC1 [I-T3-163],100
5,Cc1cc(C(F)(C(F)(F)F)C(F)(F)F)cc(C)c1-c1cc(-c2ccc(Cl)c(C(=O)NC3(C#N)CC3)c2)on1 [I-T22-2],100

# Test system: Boophilus microplus
# Experiment: Boophilus microplus - injection test
# Assay type: in vivo
# Conditions: application rate 20 μg/animal; injected into engorged adult female ticks; laying of fertile eggs, after 7 days
# In short: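 Engorged adult female ticks, five per dose, were injected in the abdomen with 1 μl of active ingredient diluted in dimethyl sulphoxide. Animals were kept in dishes under climate control, and egg fertility was assessed after 7 days.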
row,Structure (SMILES),efficacy [%]
1,O=C(NC1CC1)c1cc(-c2cnn(-c3c(Br)cc(C(F)(C(F)(F)F)C(F)(F)F)cc3C(F)(F)F)c2)ccc1Cl [I-T3-148],100
2,N#CC1(NC(=O)c2cc(-c3cnn(-c4c(Br)cc(C(F)(C(F)(F)F)C(F)(F)F)cc4C(F)(F)F)c3)ccc2Cl)CC1 [I-T3-155],100
3,O=C(NC1CC1)c1cc(-c2cnn(-c3c(Cl)cc(C(F)(C(F)(F)F)C(F)(F)F)cc3OC(F)(F)F)c2)ccc1Cl [I-T3-162],100
4,N#CC1(NC(=O)c2cc(-c3cnn(-c4c(Cl)cc(C(F)(C(F)(F)F)C(F)(F)F)cc4OC(F)(F)F)c3)ccc2Cl)CC1 [I-T3-163],100
5,Cc1cc(C(F)(C(F)(F)F)C(F)(F)F)cc(C)c1-c1cc(-c2ccc(Cl)c(C(=O)NC3(C#N)CC3)c2)on1 [I-T22-2],100

# Test system: Ctenocephalides felis
# Experiment: Ctenocephalides felis - oral test
# Assay type: in vivo
# Conditions: application rate 100 ppm in citrated cattle blood; adult fleas; kill after 2 days
# In short: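 Oral exposure of unfed adult fleas, roughly 20 per chamber, to compound-spiked citrated cattle blood taken up across a parafilm membrane. Read-out is percent kill at 2 days, where 100% means every flea dead.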
row,Structure (SMILES),efficacy [%]
1,O=C(NC1CC1)c1cc(-c2cnn(-c3c(Br)cc(C(F)(C(F)(F)F)C(F)(F)F)cc3C(F)(F)F)c2)ccc1Cl [I-T3-148],100
2,N#CC1(NC(=O)c2cc(-c3cnn(-c4c(Br)cc(C(F)(C(F)(F)F)C(F)(F)F)cc4C(F)(F)F)c3)ccc2Cl)CC1 [I-T3-155],100
3,O=C(NC1CC1)c1cc(-c2cnn(-c3c(Cl)cc(C(F)(C(F)(F)F)C(F)(F)F)cc3OC(F)(F)F)c2)ccc1Cl [I-T3-162],100
4,N#CC1(NC(=O)c2cc(-c3cnn(-c4c(Cl)cc(C(F)(C(F)(F)F)C(F)(F)F)cc4OC(F)(F)F)c3)ccc2Cl)CC1 [I-T3-163],100
5,Cc1cc(C(F)(C(F)(F)F)C(F)(F)F)cc(C)c1-c1cc(-c2ccc(Cl)c(C(=O)NC3(C#N)CC3)c2)on1 [I-T22-2],100

# Test system: Amblyomma hebraeum
# Experiment: Amblyomma hebraeum test (tick nymphs, immersion)
# Assay type: in vivo
# Conditions: application rate 100 ppm; tick nymphs immersed for one minute; kill after 42 days
# Procedure: Solvent: dimethyl sulphoxide
# To produce an appropriate active ingredient formulation, 10 mg of active ingredient are mixed with 0.5 ml of dimethyl sulphoxide, and the concentrate is diluted with water to the desired concentration.
# Tick nymphs (Amblyomma hebraeum) are placed into perforated plastic beakers and immersed in the desired concentration for one minute. The ticks are transferred on filter paper into a Petri dish and stored in a climate-controlled cabinet.
# After 42 days, the kill in % is determined. 100% means that all of the ticks have been killed; 0% means that none of the ticks have been killed.
row,Structure (SMILES),efficacy [%]
1,O=C(NC1CC1)c1cc(-c2cnn(-c3c(Br)cc(C(F)(C(F)(F)F)C(F)(F)F)cc3C(F)(F)F)c2)ccc1Cl [I-T3-148],100
2,N#CC1(NC(=O)c2cc(-c3cnn(-c4c(Br)cc(C(F)(C(F)(F)F)C(F)(F)F)cc4C(F)(F)F)c3)ccc2Cl)CC1 [I-T3-155],100
3,O=C(NC1CC1)c1cc(-c2cnn(-c3c(Cl)cc(C(F)(C(F)(F)F)C(F)(F)F)cc3OC(F)(F)F)c2)ccc1Cl [I-T3-162],100
4,N#CC1(NC(=O)c2cc(-c3cnn(-c4c(Cl)cc(C(F)(C(F)(F)F)C(F)(F)F)cc4OC(F)(F)F)c3)ccc2Cl)CC1 [I-T3-163],100
5,Cc1cc(C(F)(C(F)(F)F)C(F)(F)F)cc(C)c1-c1cc(-c2ccc(Cl)c(C(=O)NC3(C#N)CC3)c2)on1 [I-T22-2],100
